Source: ChEMBL document CHEMBL2074503, “Role of organic anion-transporting polypeptides, OATP-A, OATP-C and OATP-8, in the human placenta-maternal liver tandem excretory pathway for foetal bilirubin” (Biochem J, 2003)

Columns and labels:
[1] = target: T1, Solute carrier organic anion transporter family member 1B3 (OATP1B3) (Homo sapiens, UniProt Q9NPD5); assay: (§1) TP_TRANSPORTER: uptake in Xenopus laevis oocytes; format: functional, cell-based, Oocyte; details: Xenopus laevis oocytes expressing OATP1B3 (SLCO1B3)
T1 sequence (Q9NPD5 whole entry): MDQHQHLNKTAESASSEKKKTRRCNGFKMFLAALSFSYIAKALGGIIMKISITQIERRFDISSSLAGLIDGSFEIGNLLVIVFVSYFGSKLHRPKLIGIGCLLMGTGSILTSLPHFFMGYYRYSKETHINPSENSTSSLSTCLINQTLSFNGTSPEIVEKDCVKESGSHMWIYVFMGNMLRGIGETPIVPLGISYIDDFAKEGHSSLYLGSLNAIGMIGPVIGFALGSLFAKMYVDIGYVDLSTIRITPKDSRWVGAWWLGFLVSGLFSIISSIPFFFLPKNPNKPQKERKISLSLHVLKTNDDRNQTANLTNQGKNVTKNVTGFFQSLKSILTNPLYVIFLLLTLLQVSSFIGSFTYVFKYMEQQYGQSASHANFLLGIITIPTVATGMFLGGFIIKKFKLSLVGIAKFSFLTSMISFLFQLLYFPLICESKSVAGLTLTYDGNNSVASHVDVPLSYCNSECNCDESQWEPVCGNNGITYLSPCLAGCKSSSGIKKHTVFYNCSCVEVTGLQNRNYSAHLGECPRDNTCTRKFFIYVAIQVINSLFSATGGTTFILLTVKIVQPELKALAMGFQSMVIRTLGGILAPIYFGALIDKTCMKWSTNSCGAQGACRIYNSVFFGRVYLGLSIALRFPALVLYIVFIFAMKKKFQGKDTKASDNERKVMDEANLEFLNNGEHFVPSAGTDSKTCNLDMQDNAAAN

[2] = target: T2, Solute carrier organic anion transporter family member 1A2 (Homo sapiens, UniProt P46721); assay: (§2) TP_TRANSPORTER: inhibition of E217betaG uptake (E217betaG: 10 uM) by Bilirubin at a concentration of 100 u M in Xenopus laevis oocytes; format: functional, cell-based; details: oocyte, 100 µM
T2 sequence (P46721 whole entry): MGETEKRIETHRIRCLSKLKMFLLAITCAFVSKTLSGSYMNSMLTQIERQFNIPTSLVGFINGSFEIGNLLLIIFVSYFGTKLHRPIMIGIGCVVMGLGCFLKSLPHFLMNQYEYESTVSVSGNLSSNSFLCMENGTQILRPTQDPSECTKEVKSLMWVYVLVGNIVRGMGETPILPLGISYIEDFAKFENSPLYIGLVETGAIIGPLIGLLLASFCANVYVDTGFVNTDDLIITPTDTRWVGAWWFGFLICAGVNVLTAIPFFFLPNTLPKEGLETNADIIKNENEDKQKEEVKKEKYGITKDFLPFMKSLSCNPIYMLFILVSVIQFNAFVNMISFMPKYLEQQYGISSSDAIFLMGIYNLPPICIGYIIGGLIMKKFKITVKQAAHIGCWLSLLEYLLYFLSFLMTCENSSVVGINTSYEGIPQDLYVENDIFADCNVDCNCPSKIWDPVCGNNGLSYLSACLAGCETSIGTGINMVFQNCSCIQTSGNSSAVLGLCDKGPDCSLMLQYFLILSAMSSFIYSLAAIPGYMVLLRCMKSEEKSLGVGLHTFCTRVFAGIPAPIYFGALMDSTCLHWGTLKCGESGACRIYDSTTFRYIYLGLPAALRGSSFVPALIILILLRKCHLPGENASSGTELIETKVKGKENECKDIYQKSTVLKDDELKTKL

[3] = target: T3, Solute carrier organic anion transporter family member 1B3 (Homo sapiens, UniProt Q9NPD5); assay: as §2; format: functional, cell-based; details: oocyte, 100 µM
T3 sequence (Q9NPD5 whole entry): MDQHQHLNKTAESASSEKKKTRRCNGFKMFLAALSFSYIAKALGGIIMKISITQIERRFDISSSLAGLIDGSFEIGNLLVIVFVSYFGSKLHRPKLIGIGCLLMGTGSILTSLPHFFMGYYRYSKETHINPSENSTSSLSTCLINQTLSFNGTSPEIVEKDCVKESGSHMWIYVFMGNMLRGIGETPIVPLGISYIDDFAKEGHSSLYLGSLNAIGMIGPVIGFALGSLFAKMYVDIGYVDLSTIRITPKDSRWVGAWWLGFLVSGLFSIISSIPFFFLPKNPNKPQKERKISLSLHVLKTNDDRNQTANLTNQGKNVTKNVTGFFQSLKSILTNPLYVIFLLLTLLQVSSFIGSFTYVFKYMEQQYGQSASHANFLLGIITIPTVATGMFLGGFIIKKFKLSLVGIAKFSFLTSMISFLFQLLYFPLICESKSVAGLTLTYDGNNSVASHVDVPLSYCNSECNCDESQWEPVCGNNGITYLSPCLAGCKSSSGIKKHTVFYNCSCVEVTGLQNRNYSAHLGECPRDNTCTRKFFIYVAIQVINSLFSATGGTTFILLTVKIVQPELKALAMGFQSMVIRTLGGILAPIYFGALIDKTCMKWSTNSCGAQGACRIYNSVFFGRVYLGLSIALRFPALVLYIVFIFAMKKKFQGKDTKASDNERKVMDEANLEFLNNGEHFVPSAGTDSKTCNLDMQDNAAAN

[4] = target: T4, Solute carrier organic anion transporter family member 1B1 (Homo sapiens, UniProt Q9Y6L6); assay: as §2; format: functional, cell-based; details: oocyte, 100 µM
T4 sequence (Q9Y6L6 whole entry): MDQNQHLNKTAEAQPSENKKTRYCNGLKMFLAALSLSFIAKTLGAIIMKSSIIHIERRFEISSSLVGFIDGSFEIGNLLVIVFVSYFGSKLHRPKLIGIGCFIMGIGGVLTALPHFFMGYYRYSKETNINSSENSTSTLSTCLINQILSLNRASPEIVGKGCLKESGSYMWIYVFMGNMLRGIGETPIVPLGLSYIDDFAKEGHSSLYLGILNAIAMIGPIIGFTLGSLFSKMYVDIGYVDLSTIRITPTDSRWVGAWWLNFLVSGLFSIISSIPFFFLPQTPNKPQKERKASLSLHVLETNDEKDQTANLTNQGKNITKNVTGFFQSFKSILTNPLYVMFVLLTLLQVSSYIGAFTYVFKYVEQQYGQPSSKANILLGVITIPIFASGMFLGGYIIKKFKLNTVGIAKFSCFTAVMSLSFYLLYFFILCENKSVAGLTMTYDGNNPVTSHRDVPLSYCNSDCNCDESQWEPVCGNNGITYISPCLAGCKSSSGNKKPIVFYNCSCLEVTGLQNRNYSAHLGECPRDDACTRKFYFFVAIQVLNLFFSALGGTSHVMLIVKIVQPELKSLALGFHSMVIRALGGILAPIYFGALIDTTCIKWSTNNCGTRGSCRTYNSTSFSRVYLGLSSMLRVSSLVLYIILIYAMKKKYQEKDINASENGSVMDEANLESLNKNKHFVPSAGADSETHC

[5] = target: T2, Solute carrier organic anion transporter family member 1A2; assay: (§3) TP_TRANSPORTER: inhibition of UCB uptake (UCB: 10 uM) by Estradiol-17beta-D-glucuronide at a concentration of 100 u M in Xenopus laevis oocytes; format: functional, cell-based; details: oocyte, 100 µM
[6] = target: T3, Solute carrier organic anion transporter family member 1B3; assay: as §3; format: functional, cell-based; details: oocyte, 100 µM
[7] = target: T4, Solute carrier organic anion transporter family member 1B1; assay: as §3; format: functional, cell-based; details: oocyte, 100 µM
[8] = substrate: C=CC1=C(C)/C(=C/c2[nH]c(Cc3[nH]c(/C=C4\NC(=O)C(C)=C4C=C)c(C)c3CCC(=O)O)c(CCC(=O)O)c2C)NC1=O; assay: as §1; format: functional, cell-based, Oocyte

## C=CC1=C(C)/C(=C/c2[nH]c(Cc3[nH]c(/C=C4\NC(=O)C(C)=C4C=C)c(C)c3CCC(=O)O)c(CCC(=O)O)c2C)NC1=O [BILIRUBIN]
[1]
  Km: 0.0391 µM
[2]
  Activity: inhibitor [+]
[3]
  Activity: inhibitor [+]
[4]
  Activity: inhibitor [+]

## C[C@]12CC[C@@H]3c4ccc(O)cc4CC[C@H]3[C@@H]1CC[C@@H]2O[C@@H]1O[C@H](C(=O)O)[C@@H](O)[C@H](O)[C@H]1O [ESTRADIOL 17B GLUCURONIDE]
[5]
  Activity: inhibitor [+]
[6]
  Activity: inhibitor [+]
[7]
  Activity: inhibitor [+]

B1: Solute carrier organic anion transporter family member 1B1 (Homo sapiens) (protein)
chain: MDQNQHLNKTAEAQPSENKKTRYCNGLKMFLAALSLSFIAKTLGAIIMKSSIIHIERRFEISSSLVGFIDGSFEIGNLLVIVFVSYFGSKLHRPKLIGIGCFIMGIGGVLTALPHFFMGYYRYSKETNINSSENSTSTLSTCLINQILSLNRASPEIVGKGCLKESGSYMWIYVFMGNMLRGIGETPIVPLGLSYIDDFAKEGHSSLYLGILNAIAMIGPIIGFTLGSLFSKMYVDIGYVDLSTIRITPTDSRWVGAWWLNFLVSGLFSIISSIPFFFLPQTPNKPQKERKASLSLHVLETNDEKDQTANLTNQGKNITKNVTGFFQSFKSILTNPLYVMFVLLTLLQVSSYIGAFTYVFKYVEQQYGQPSSKANILLGVITIPIFASGMFLGGYIIKKFKLNTVGIAKFSCFTAVMSLSFYLLYFFILCENKSVAGLTMTYDGNNPVTSHRDVPLSYCNSDCNCDESQWEPVCGNNGITYISPCLAGCKSSSGNKKPIVFYNCSCLEVTGLQNRNYSAHLGECPRDDACTRKFYFFVAIQVLNLFFSALGGTSHVMLIVKIVQPELKSLALGFHSMVIRALGGILAPIYFGALIDTTCIKWSTNNCGTRGSCRTYNSTSFSRVYLGLSSMLRVSSLVLYIILIYAMKKKYQEKDINASENGSVMDEANLESLNKNKHFVPSAGADSETHC
[8]
  Km: 0.0076 µM
